The source of these data is ChEMBL document CHEMBL1132409, “Pharmacological treatment of obesity: therapeutic strategies” (J Med Chem, 1999).

Data set [1] has as its target T1, Neuropeptide Y receptor type 1 (Homo sapiens, UniProt P25929).
T1 sequence (P25929 whole entry): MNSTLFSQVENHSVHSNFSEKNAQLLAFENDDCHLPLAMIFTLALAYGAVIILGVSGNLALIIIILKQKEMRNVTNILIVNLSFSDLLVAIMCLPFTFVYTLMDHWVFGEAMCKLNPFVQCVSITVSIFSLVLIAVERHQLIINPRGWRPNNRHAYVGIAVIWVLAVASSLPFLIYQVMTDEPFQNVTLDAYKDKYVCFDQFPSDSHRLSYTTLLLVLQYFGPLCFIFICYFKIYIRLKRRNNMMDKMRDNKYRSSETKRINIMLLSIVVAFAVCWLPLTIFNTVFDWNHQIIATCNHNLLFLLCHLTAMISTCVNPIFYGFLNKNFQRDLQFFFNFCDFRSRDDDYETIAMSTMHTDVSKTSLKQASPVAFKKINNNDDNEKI
Description: The compound was tested for the binding affinity against Neuropeptide Y receptor type 1.

Data set [2] deals with T2, Beta-3 adrenergic receptor (Homo sapiens, UniProt P13945). Kind of data set: Binding affinity towards human Beta-3 adrenergic receptor.
Target sequence in this assay (P13945 whole entry): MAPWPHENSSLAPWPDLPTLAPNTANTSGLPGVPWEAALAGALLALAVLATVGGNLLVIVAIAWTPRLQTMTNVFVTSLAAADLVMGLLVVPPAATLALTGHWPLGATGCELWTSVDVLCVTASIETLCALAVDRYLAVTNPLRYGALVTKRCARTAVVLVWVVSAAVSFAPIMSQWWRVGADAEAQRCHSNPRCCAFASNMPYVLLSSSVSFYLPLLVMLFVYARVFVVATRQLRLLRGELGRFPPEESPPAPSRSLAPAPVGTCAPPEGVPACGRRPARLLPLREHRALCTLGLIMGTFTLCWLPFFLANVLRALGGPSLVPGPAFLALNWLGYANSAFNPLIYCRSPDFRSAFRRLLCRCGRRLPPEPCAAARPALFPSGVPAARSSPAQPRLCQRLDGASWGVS
Data set [3] concerns the target T3, Neuropeptide Y receptor type 5 (Rattus norvegicus, UniProt Q63634).
T3 sequence (Q63634 whole entry): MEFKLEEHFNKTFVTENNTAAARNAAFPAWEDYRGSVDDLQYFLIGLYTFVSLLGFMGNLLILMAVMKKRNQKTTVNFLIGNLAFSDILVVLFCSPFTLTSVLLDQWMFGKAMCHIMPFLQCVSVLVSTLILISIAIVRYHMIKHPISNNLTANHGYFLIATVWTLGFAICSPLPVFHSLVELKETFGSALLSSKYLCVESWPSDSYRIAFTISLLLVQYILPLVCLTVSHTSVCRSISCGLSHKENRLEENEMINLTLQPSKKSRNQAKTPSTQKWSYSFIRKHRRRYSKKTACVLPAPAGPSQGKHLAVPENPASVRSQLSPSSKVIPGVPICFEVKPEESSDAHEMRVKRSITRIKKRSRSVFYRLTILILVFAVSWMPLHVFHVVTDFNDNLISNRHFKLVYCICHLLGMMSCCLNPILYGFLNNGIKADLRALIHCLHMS
Description: The compound was tested for the binding affinity against Neuropeptide Y receptor type 5 in rat.

Data set [4] can be described thus: Oral bioavailability of the compound. The data set is classed as ADME, organism-based. The conditions noted are these: in vivo.
For data set [5], the target named is T2, Beta-3 adrenergic receptor. Description: Binding affinity towards Beta-3 adrenergic receptor.
Target sequence in this assay (P13945 whole entry): as the sequence (P13945 whole entry) above
Data set [6] deals with T2, Beta-3 adrenergic receptor. Description: Beta-3 adrenergic receptor intrinsic activity relative to isoproterenol.
Target sequence in this assay (P13945 whole entry, looked up): as the sequence (P13945 whole entry) above
A short description of data set [7]: Bioavailability in rat. In kind it is ADME, organism-based. The conditions noted are these: in vivo, read-out: Bioavailabiility.
The target of data set [8] is T4, Neuropeptide Y receptor type 2 (Rattus norvegicus, UniProt Q9ERC0).
T4 sequence (Q9ERC0 whole entry): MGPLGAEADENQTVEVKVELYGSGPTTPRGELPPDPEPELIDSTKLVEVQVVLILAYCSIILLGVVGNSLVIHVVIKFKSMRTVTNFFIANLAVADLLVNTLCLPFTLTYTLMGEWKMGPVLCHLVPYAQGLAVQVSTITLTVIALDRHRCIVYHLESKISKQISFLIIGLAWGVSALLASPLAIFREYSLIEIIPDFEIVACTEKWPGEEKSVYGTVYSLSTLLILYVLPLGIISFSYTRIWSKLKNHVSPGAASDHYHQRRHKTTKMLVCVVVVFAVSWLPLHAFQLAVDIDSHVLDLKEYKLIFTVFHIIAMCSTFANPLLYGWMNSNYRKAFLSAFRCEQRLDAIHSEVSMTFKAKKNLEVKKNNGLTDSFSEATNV
Kind of data set: The compound was tested for the binding affinity against Neuropeptide Y receptor type 2.

For data set [9], the target named is T5, Neuropeptide Y receptor type 1 (Rattus norvegicus, UniProt P21555).
T5 sequence (P21555 whole entry): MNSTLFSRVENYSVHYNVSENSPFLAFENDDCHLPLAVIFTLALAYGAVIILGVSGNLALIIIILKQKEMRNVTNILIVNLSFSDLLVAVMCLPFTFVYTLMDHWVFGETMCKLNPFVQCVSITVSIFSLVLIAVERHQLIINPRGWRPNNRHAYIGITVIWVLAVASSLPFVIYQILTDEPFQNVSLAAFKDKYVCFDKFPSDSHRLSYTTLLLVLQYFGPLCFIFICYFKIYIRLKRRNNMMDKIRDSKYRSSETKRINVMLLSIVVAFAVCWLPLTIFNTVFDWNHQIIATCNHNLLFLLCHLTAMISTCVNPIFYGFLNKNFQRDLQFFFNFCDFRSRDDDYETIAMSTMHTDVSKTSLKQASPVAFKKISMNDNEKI
Description: The compound was tested for the binding affinity against NPY1 (Neuropeptide Y receptor type 1).

Data set [10] concerns the target Neuropeptide Y receptor type 4 (Rattus norvegicus, UniProt Q63447). Description: The compound was tested for the binding affinity against Neuropeptide Y receptor type 4.
The nature of data set [11]: Bioavailability in dogs. The conditions noted are these: dog, in vivo; read-out: Bioavailabiility. In kind it is ADME, organism-based, Canis lupus familiaris.
Data set [12] concerns the target T5, Neuropeptide Y receptor type 1. Description: The compound was tested for the binding affinity against Neuropeptide Y receptor type 1 in rat.
Data set [13] deals with Rhesus monkey. Kind of data set: Effective dose to stimulate lipolysis in Rhesus monkeys (iv). In kind it is functional, Cercopithecidae. The conditions noted are these: Macaca mulatta.
In data set [14] the test system is Rhesus monkey. Description: Effective dose to stimulate lipolysis in Rhesus monkeys(iv). The data set is classed as functional, Cercopithecidae. The settings on record: Macaca mulatta.
Data set [15] is described as follows: Bioavailability in dog. The conditions noted are these: in vivo. In kind it is ADME, organism-based, Canis lupus familiaris.
The subject of another data set is Rattus norvegicus. Description: Ability to inhibit the food intake of Sprague-Dawley rats at 30 mg/kg after intraperitoneal administration. In kind it is functional. The conditions noted are these: ip.
Data set [16] in a line: Oral bioavailability in rat. The conditions noted are these: in vivo. In kind it is ADME, organism-based.
Data set [17] deals with T6, Cholecystokinin receptor type A (Mus musculus, UniProt O08786).
T6 sequence (O08786 whole entry): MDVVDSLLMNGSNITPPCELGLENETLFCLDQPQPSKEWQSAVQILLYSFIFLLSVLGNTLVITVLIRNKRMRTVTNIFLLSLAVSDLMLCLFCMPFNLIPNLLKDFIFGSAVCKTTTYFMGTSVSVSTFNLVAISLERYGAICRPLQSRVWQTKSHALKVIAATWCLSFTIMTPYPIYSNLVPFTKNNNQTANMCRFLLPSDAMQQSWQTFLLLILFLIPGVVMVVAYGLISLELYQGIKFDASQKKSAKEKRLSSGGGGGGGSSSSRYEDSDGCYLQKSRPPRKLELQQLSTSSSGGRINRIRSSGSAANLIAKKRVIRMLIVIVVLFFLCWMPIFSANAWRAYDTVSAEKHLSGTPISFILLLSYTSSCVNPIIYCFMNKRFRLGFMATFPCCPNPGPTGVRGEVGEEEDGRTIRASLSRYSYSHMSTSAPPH
Kind of data set: Binding affinity in Cholecystokinin type A receptor binding assay […].

Neuropeptide Y receptor type 4, sequence (Q63447 whole entry): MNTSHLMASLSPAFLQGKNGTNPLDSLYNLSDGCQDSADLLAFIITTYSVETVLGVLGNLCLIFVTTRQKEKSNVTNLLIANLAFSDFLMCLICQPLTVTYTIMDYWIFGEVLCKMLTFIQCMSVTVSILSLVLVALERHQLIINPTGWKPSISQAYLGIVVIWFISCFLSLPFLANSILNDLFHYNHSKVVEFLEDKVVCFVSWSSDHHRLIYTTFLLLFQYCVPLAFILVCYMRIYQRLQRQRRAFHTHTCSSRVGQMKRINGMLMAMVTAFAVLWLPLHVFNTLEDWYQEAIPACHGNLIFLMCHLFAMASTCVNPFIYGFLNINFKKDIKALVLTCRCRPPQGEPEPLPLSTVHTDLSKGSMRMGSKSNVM

For the compound `CC[C@H]1CC[C@@](c2cccc(OCOC)c2)(N2CCN(c3ccccc3)CC2)CC1`, the IC50 (in general, the midpoint of a concentration-inhibition curve) in data set [1] was determined as 39 nM.
On to `CS(=O)(=O)Nc1cc([C@@H](O)CN[C@H](Cc2cccc(Cl)c2)c2ccc(OC(F)F)cc2)ccc1O`, for which, in [2], the Ki (in general, a measure of affinity in units of concentration, obtained from inhibition or displacement) is 9 nM.
With `COc1ccc(-c2cc(NC(=O)Cc3ccc4ccccc4c3)[nH]n2)cc1OC`, the half-maximal inhibitory concentration (IC50) in data set [3] is 8.3 nM.
Regarding `CCCCCCNC(=O)Nc1ccc(S(=O)(=O)Nc2ccc(CCNC[C@H](O)COc3ccc(O)cc3)cc2)cc1` [L-755507], the bioavailability in data set [4] stood at 1%.
For `CCCCCCP(=O)(O)COc1ccc(C[C@@H](C)NC[C@H](O)COc2ccc(O)c3c2CCC(=O)N3)cc1`, in data set [5], the EC50 (usually the midpoint of the concentration-response curve) is less than 300 nM. Moreover, in [6], the Intrinsic activity was greater than 80%.
For `Cn1c(C(=O)O)cc2cc(OCCNC[C@H](O)c3ccc(N)nc3)ccc21`, the response in data set [2] was half-maximal at 300 nM (EC50). In addition, the bioavailability in data set [7] is less than 10%.
For the compound `CC(C)(Cc1ccc(Oc2ccc(C(N)=O)cn2)cc1)NC[C@H](O)COc1cccc2[nH]c(=O)[nH]c12`, in data set [2], the EC50 was 30 nM.
For the compound `O=C(CN1CCC(n2c(=O)[nH]c3ccccc32)CC1)Nc1ccc2c(c1)-c1ccccc1C2=O`, the IC50 in data set [8], in [9] and in [10] was greater than 5000 nM in each case.
In the case of `C[C@H](Cc1ccc(OCP(=O)(O)c2ccccc2)cc1)NC[C@H](O)COc1ccc(O)c(NS(C)(=O)=O)c1`, in [5], the EC50 was less than 300 nM. Moreover, in data set [6], the Intrinsic activity is greater than 80%.
Take `O=S(=O)(Nc1ccc(CCNC[C@H](O)c2cccnc2)cc1)c1ccc(I)cc1`: the bioavailability in data set [11] stood at 51%.
Regarding `COc1ccc(-c2cc(NC(=O)CC34CCCC3Cc3ccccc3C4)[nH]n2)cc1OC` (configuration not stated), the IC50 in [3] was found to be 2.3 nM.
For `Clc1ccc(OCc2nc3c(OCCCN4CCCCC4)cccc3n2CCCC2CCCNC2)cc1` (configuration not stated), the IC50 in [12] worked out at 1.7 nM.
For `Nc1ccc(OC[C@@H](O)CNCCc2ccc(NS(=O)(=O)c3ccc(I)cc3)cc2)cn1`, in the data set on Rhesus monkey [13], the 50% effect level (ED50) was put at a dose of 0.8 mg/kg.
With `O=S(=O)(Nc1ccc(CCNC[C@H](O)COc2cccnc2)cc1)c1ccc(I)cc1` [L-749372], in the data set on Rhesus monkey [14], the ED50 (usually the dose that gives a 50% effect, or the effect in half of the subjects) stood at 2 mg/kg. This compound also had a bioavailability in data set [15] of 47%.
`Cc1cc(N2CCCC2)cc(/C=C/c2cccc(C(F)(F)F)c2)n1` gave a half-inhibitory concentration (IC50) in [3] of 4.1 nM.
As for `CC(C)c1ccc(S(=O)(=O)Nc2ccc(CCNC[C@H](O)COc3ccc(N)nc3)cc2)cc1`, in [15], the F came to 41% and the bioavailability worked out at 47%. In addition, the bioavailability in data set [7] was determined as 4%.
For `CN(C)CCCNc1nc(NC[C@H]2CC[C@H](CNS(=O)(=O)c3cccc4ccccc34)CC2)nc2ccccc12`, the inhibition in vivo – broadly, how much of the control response was suppressed – at 30 mg/kg in the data set with Rattus norvegicus is 96%.
In [16], `COc1ccc(N(C(=O)CN2C(=O)C(Cc3n[nH]c4ccccc34)C(=O)N(c3ccccc3)c3ccccc32)C(C)C)cc1` (configuration not stated) returned a bioavailability of 8%.
Compound `CCCCNC(=O)[C@@H]1Cc2ccccc2N1C(=O)CC(N)CC` (some centres not stated) registered a Ki in [17] of 7 nM.
